Experiments:
mCD1d [1] = target: T1, mCD1d (Mus musculus, UniProt P11609); test: Loading of mCD1d tetramers with or without 0.05% Triton X-100, staining of hybridoma DN3A4.1-2; format: binding; conditions: 0.05% Triton X-100, 24 hr at 37°C
T1 sequence (P11609 22-305 limits assumed): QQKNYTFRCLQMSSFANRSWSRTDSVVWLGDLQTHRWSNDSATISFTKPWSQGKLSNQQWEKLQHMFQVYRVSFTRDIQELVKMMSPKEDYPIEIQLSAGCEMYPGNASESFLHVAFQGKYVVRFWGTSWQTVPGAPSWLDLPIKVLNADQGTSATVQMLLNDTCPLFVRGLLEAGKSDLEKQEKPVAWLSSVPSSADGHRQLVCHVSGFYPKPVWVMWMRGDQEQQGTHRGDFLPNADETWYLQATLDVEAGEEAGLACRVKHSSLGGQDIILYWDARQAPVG
T1 sequence (P01887 21-119 partner): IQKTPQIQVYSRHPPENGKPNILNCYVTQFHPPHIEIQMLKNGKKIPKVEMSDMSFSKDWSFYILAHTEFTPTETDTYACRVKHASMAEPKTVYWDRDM
Text: The efficient loading of CD1 molecules with lipids such as αGalCer-C26:0 is known to involve cofactors that enhance the transfer of lipids from micelles or membranes into the antigen-binding groove of the CD1 protein. The best known of these cofactors are resident intracellular lipid binding and transfer proteins including those belonging to the saposin family, GM2 activator proteins, and Niemann-Pick type C1 and C2 proteins ([Zhou et al., 2004; Sagiv et al., 2006; Yuan et al., 2007; Schrantz et al., 2007]). Most of these are known to have detergent-like activities that facilitate solubilization of lipids and their exchange between hydrophobic binding sites. […]
Figure 5 Lack of Detergent-like Cofactor Dependence of Th2 Cell-Type Cytokine-Biasing αGalCer Analogs (A) Glycolipids were incubated for 24 hr at 37°C with murine CD1d proteins in the absence (top row) or presence (bottom row) of 0.05% Triton X-100. […] After washing, DN32.D3 iNKT hybridoma cells were added and supernatant concentrations of IL-2 were determined after an additional 14 hr of incubation. […]
Recombinant CD1d proteins were produced and assembled into tetramers for staining as previously described ([Forestier et al., 2007]). […] All samples were analyzed with the FACSCalibur flow cytometer (BD Biosciences).

mCD1d [2] = target: T1, mCD1d; test: In vitro CD1d loading assay with immobilized mCD1d, saposins or Triton X-100, DN32.D3 hybridoma IL-2 readout; format: biochemical; conditions: for effect of all four saposins on mCD1d loading: saposins 10 μg/ml
Method: Figure 5 Lack of Detergent-like Cofactor Dependence of Th2 Cell-Type Cytokine-Biasing αGalCer Analogs (A) Glycolipids were incubated for 24 hr at 37°C with murine CD1d proteins in the absence (top row) or presence (bottom row) of 0.05% Triton X-100. The resulting complexes were assembled as tetramers and used for staining mouse iNKT hybridoma DN3A4.1-2. The dashed line histograms show background staining with unloaded tetramers, and the bold histograms show staining with glycolipid loaded tetramers. (B) The same analysis as in (A) except with human CD1d tetramers, which were also used for DN3A4.1-2 staining. (C) Glycolipids at various concentrations were incubated with immobilized mCD1d protein for 2 hr in pH 7.0 or pH 5.0 buffers with no additives (medium) or in the same buffers containing the indicated purified recombinant saposins (10 μg/ml) or Triton X-100 (0.05%). After washing, DN32.D3 iNKT hybridoma cells were added and supernatant concentrations of IL-2 were determined after an additional 14 hr of incubation. All results shown (A, B, and C) were representative of at least two independent experiments.
To extend these observations to a more physiological model, we tested the effects of purified recombinant saposin A, B, C, and D proteins on loading of αGalCer analogs.
Recombinant murine CD1d proteins at 4 μg/ml in 50 μl PBS were coated on the surfaces of microtiter plate wells for 2 hr at 37°C and then washed with PBS for removal of unbound proteins. Subsequently, various concentrations of glycolipids in 0.1 M sodium phosphate buffer (pH 7.0) or 0.1 M sodium citrate buffer (pH 5.0) containing 150 mM NaCl were incubated with or without 0.05% Triton X-100 or recombinant purified human saposins A, B, C, or D at 10 μg/ml for another 2 hr at 37°C. Saposins were produced and purified as described ([Yuan et al., 2007]). After extensive washing with PBS and media, 5 × 10^4 murine iNKT hybridoma DN32.D3 cells were added in 200 μl of complete medium and incubated at 37°C for 14 hr. Supernatants were analyzed for murine IL-2 by capture ELISA.

| Compound | effect of Triton X-100 on formation of mCD1d tetramers that bind iNKT cell TCRs (mCD1d [1]) | effect of all four saposins on mCD1d loading (mCD1d [2]; acidic pH) | effect of all four saposins on mCD1d loading (mCD1d [2]; neutral pH) | cofactor dependence of mCD1d loading (mCD1d [2]; recombinant mCD1d, iNKT hybridoma IL-2 readout) |
| --- | --- | --- | --- | --- |
| CCCCCCCCCCCCCCCCCCCCCCCC(=O)NC(COC1OC(CO)C(O)C(O)C1O)C(O)C(O)CCCCCCCCCCCCCC (centres unmarked) [αGalCer-C24:0] | clear enhancing effect | – | – | – |
| CCCCCCCCCCCCCCC(O)C(O)C(COC1OC(CO)C(O)C(O)C1O)NC(=O)CCCCCCCCC (centres unmarked) [αGalCer-C10:0] | – | reduced mCD1d loading | only modest enhancement | – |
| CCCCCCCCCCCCCCCCCCCCCCCCCC(=O)NC(COC1OC(CO)C(O)C(O)C1O)C(O)C(O)CCCCCCCCCCCCCC (centres unmarked) [αGalCer-C26:0, reference compound] | clear enhancing effect | – | – | dependent either on the presence of detergent (0.1% Triton X-100) or on the presence of a purified saposin |

— PMC2719696, “Kinetics and Cellular Site of Glycolipid Loading Control the Outcome of Natural Killer T Cell Activation” (Immunity, 2009)
